In PubChem BioAssay (NCI):
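Values below derive from 48-hour exposures of cells grown in 96-well plates, with endpoints linearly interpolated between the two concentrations bracketing the appropriate inhibition level. GI50 marks 50% less growth. TGI is the concentration that stops growth completely.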

Columns and labels:
Assay in all cases: NCI anticancer screen, dose series, 48 h
A549 NSCLC = test system: A549 NSCLC
COLO 205 colon = test system: COLO 205 colon
HT29 colon = test system: HT29 colon
K-562 leukemia = test system: K-562 leukemia
KM12 colon = test system: KM12 colon
NCI-H23 lung = test system: NCI-H23 lung
NCI-H460 lung = test system: NCI-H460 lung
SNB-19 CNS = test system: SNB-19 CNS
SNB-75 CNS = test system: SNB-75 CNS
U251 CNS = test system: U251 CNS

With COc1ccccc1C1C(C#N)=C(N)OC2=C1C(=O)CCC2 (stereo not given) the GI50 (A549 NSCLC) was over 100 µM, the TGI (A549 NSCLC) was over 100 µM and the GI50 (COLO 205 colon) was over 100 µM. It also gave a TGI (COLO 205 colon) of over 100 µM, a GI50 (HT29 colon) of over 100 µM and a TGI (HT29 colon) of over 100 µM. The GI50 (K-562 leukemia) was over 100 µM, the TGI (K-562 leukemia) was over 100 µM and the GI50 (KM12 colon) was over 100 µM. For the same molecule, the TGI (KM12 colon) was over 100 µM, the GI50 (NCI-H23 lung) was over 100 µM and the TGI (NCI-H23 lung) was over 100 µM. For the same molecule, the GI50 (NCI-H460 lung) was over 100 µM, the TGI (NCI-H460 lung) was over 100 µM and the GI50 (SNB-19 CNS) was over 100 µM. For the same molecule, the TGI (SNB-19 CNS) was over 100 µM, the GI50 (SNB-75 CNS) was over 100 µM and the TGI (SNB-75 CNS) was over 100 µM. The GI50 (U251 CNS) was over 100 µM and the TGI (U251 CNS) was over 100 µM.

CCCCc1ccc2[n+](c1)C(C(=O)OCC)=PC2 (stereo not given) showed a TGI (A549 NSCLC) of over 100 µM, a TGI (COLO 205 colon) of over 100 µM and a TGI (HT29 colon) of over 100 µM. It also gave a TGI (KM12 colon) of over 100 µM, a TGI (NCI-H23 lung) of over 100 µM and a TGI (NCI-H460 lung) of over 100 µM. For the same molecule, the TGI (SNB-75 CNS) was over 100 µM and the TGI (U251 CNS) was over 100 µM.

O=C1c2ccccc2-c2ccc(NC(=O)C3CCCCC3C(=O)O)cc21 (stereo not given) was tested, and the TGI (A549 NSCLC) was over 100 µM, the TGI (COLO 205 colon) was over 100 µM and the TGI (HT29 colon) was over 100 µM. For the same molecule, the TGI (K-562 leukemia) was over 100 µM, the TGI (KM12 colon) was over 100 µM and the TGI (NCI-H23 lung) was over 100 µM. It also gave a TGI (NCI-H460 lung) of over 100 µM, a TGI (SNB-19 CNS) of over 100 µM and a TGI (SNB-75 CNS) of over 100 µM. For the same molecule, the TGI (U251 CNS) was over 100 µM.

COc1ccc(C(=O)Cc2cc(OC)ccc2OC)cc1 showed a TGI (A549 NSCLC) of over 100 µM, a TGI (COLO 205 colon) of over 100 µM and a TGI (HT29 colon) of over 100 µM. For the same molecule, the TGI (K-562 leukemia) was over 100 µM, the TGI (NCI-H23 lung) was over 100 µM and the TGI (NCI-H460 lung) was over 100 µM. The TGI (SNB-19 CNS) was over 100 µM, the TGI (SNB-75 CNS) was 60.1 µM and the TGI (U251 CNS) was over 100 µM.

Cc1cc(NS(=O)(=O)c2ccc(Nc3c4ccccc4nc4c(C(=O)NCCN(C)C)ccc(Cl)c34)cc2)no1 gave a TGI (A549 NSCLC) of 17.3 µM, a TGI (COLO 205 colon) of 14.9 µM and a TGI (HT29 colon) of 14.4 µM. For the same molecule, the TGI (K-562 leukemia) was 21.2 µM, the TGI (KM12 colon) was 19.3 µM and the TGI (NCI-H23 lung) was 16.1 µM. The TGI (NCI-H460 lung) was 11.4 µM, the TGI (SNB-19 CNS) was 9.68 µM and the TGI (SNB-75 CNS) was 11.9 µM. It also gave a TGI (U251 CNS) of 13.6 µM.

Molecule CC(C)=CCN(N=O)c1ncnc2nc[nH]c12 has a TGI (A549 NSCLC) of over 100 µM, a TGI (COLO 205 colon) of over 100 µM and a TGI (HT29 colon) of over 100 µM. It also gave a TGI (K-562 leukemia) of over 100 µM, a TGI (KM12 colon) of over 100 µM and a TGI (NCI-H23 lung) of over 100 µM. The TGI (NCI-H460 lung) was over 100 µM, the TGI (SNB-19 CNS) was over 100 µM and the TGI (SNB-75 CNS) was over 100 µM.

Work on CCOC(=O)C1C(c2cc(OC)c(O)c(OC)c2)c2cc3c(cc2OC1(C)O)OCO3 (stereo not given) yielded a TGI (A549 NSCLC) of over 100 µM, a TGI (COLO 205 colon) of over 100 µM and a TGI (HT29 colon) of over 100 µM. The TGI (K-562 leukemia) was over 100 µM, the TGI (NCI-H23 lung) was over 100 µM and the TGI (NCI-H460 lung) was over 100 µM. It also gave a TGI (SNB-19 CNS) of over 100 µM, a TGI (SNB-75 CNS) of 77.9 µM and a TGI (U251 CNS) of over 100 µM.

With Cc1ccc2c(c1)c(=O)c1c(NCCN(C)C)ccc3nnn2c31 the TGI (A549 NSCLC) was 13.6 µM, the TGI (COLO 205 colon) was 9.72 µM and the TGI (HT29 colon) was 12 µM. The TGI (K-562 leukemia) was 19.6 µM, the TGI (KM12 colon) was 11.7 µM and the TGI (NCI-H23 lung) was 15.3 µM. The TGI (NCI-H460 lung) was 10.2 µM, the TGI (SNB-19 CNS) was 33.8 µM and the TGI (SNB-75 CNS) was 16.9 µM. The TGI (U251 CNS) was 16.9 µM.
